One series concerns the target T1, Dopamine D3 receptor (Homo sapiens, UniProt P35462).
T1 construct: expressed in transfected cells; host or cells: CHO-K1
In words: In vitro dopamine D3 receptor function experiment (CHO-K1/D3/CRE reporter, chemiluminescence). The series is classed as cell-based. The conditions noted are these: for EC50: forskolin 0.4 µM; for Emax: maximum activation rate. On the procedure:
3.1.1 Cell information: CHO-K1/D3/CRE constructed by referring to the method in Example 5 of CN114369578A.
The first day: cell plating • (1) The cultured cells were digested with trypsin, and after the digestion was terminated with culture medium, the cell suspension was transferred to a centrifuge tube and centrifuged at 750 rpm for 5 min. • (2) The supernatant was discarded, and the pellet was resuspended in an appropriate amount of plating medium.
The following day: experimental detection • (1) The test compounds were diluted to 0.2 mM with DMSO, and the reference compound dopamine was diluted to 0.02 mM. • (2) Compound dilution (4-fold dilution at 8 concentration points) was performed using Bravo, with the starting concentrations of the test compounds and the reference compound being 5 µM and 500 nM, respectively. […] The program selected was an ultrasensitive chemiluminescence detection program.

The next series addresses T2, 5-HT1A (Homo sapiens, UniProt P08908).
T2 sequence (P08908 1-422): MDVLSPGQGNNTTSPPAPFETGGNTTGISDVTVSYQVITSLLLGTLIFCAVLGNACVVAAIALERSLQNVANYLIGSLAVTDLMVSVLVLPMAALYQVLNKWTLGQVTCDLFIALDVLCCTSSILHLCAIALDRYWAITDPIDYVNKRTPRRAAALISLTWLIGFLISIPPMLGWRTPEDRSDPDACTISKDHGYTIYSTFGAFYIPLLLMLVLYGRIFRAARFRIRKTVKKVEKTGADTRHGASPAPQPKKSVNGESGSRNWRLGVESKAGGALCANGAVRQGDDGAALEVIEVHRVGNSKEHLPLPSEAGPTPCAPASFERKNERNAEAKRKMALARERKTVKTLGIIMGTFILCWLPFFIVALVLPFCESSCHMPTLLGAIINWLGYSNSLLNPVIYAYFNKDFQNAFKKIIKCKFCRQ
In words: In vitro 5HT1A receptor function experiment (cAMP, forskolin-stimulated HEK293/5HT1A cells). The series is classed as cell-based. Set-up: expressed in transfected cells; host or cells: HEK293. As to conditions: for EC50: forskolin 1 µM; for Emax: maximum activation rate. The procedure: 1.1.1 Cell information: HEK293/5HT1A: a stably transfected cell strain HEK293/5HT1A constructed by adopting 5HT1A receptor lentivirus to infect HEK293; growth culture medium: DMEM, 10% FBS, and 0.6 µg/mL puro; and cryopreservation culture medium: 70% culture medium, 20% FBS, and 10% DMSO.

Series [1] in a line: In vitro liver microsome stability, CD-1 mouse. The conditions noted are these: for CLint scaled at 1 µM / half-life at 1 µM / microsomal CLint at 1 µM: CD-1, mouse, liver microsomes, pH 7.4; for CLint(liver): CD-1 mouse liver microsomes.
Protocol: (§1) • (1) Buffer preparation: 73.21 g of dipotassium hydrogen phosphate trihydrate and 10.78 g of potassium dihydrogen phosphate were dissolved in 4000 mL of ultrapure water. The pH of the solution was adjusted to within 7.40 ± 0.10 using 10% phosphoric acid or 1 M potassium hydroxide, resulting in a final concentration of 100 mM. • (2) Solution preparation and dilution: Stock solutions of the test compounds at a concentration of 10 mM were prepared in dimethyl sulfoxide (DMSO) and stored at 4 °C, and they were diluted into 100 µM working solutions with pure acetonitrile when used. A stock solution of the control compound testosterone at a concentration of 10 mM was prepared in DMSO and stored at -20 °C, and it was diluted into a 400 µM working solution with pure acetonitrile when used. • (3) Termination solution preparation: The termination solution was acetonitrile containing the internal standard buspirone. The prepared termination solution was stored in a refrigerator at 2-8 °C. • (4) Liver microsome solution preparation: Microsomes from various species (CD-1 mouse, SD rat, and human) were diluted into a 20× working solution using 100 mM potassium phosphate buffer. The final concentration of the microsomes in the reaction system was 0.5 mg/mL. • (5) Reduced nicotinamide adenine dinucleotide phosphate (NADPH) regeneration system preparation: Appropriate amounts of nicotinamide adenine dinucleotide phosphate (NADP), glucose-6-phosphate (G6P), magnesium chloride (MgCl2), and glucose-6-phosphate dehydrogenase (G6PDH) were weighed to prepare stock solutions at concentrations of 65.33 mM, 330 mM, 300 mM, and 250 Units/mL, respectively. The four stock solutions described above were each added to an appropriate amount of buffer, and the mixture was mixed well by gently inverting up and down. […] Several incubation plates were prepared and named T0, T5, T10, T20, T40, T60, PB60, and NCF60, respectively. […] The NCF60 plate was incubated for 60 min with potassium phosphate buffer replacing the NADPH regeneration system solution. The PB60 plate was incubated for 60 min with potassium phosphate buffer replacing the liver microsomes. Samples under all conditions were prepared in triplicate.
(§2) 2 µL of the test compound or control compound and 100 µL of microsome working solution (containing 1 mg/mL liver microsome protein) were added to each of the T0, T5, T10, T20, T40, T60, and NCF60 plates, and 2 µL of the test compound and 100 µL of potassium phosphate buffer were added to the PB60 plate. The plates described above were then pre-incubated in a 37 °C water bath for about 5 min.
(§3) After the pre-incubation, 600 µL of the termination solution was first added to the T0 samples, followed by the addition of 98 µL of NADPH regeneration system working solution. The plate was sealed, shaken, and then allowed to wait for simultaneous processing with subsequent samples. Except for the NCF60 plate where 98 µL of potassium phosphate buffer was added to each sample well, 98 µL of NADPH regeneration system working solution was added to each sample well of the other incubation plates to initiate the reaction. In the reaction system, the final concentrations of the test compound and the control compound were 1 µM and 4 µM, respectively, the concentration of the liver microsomes was 0.5 mg/mL, and the final concentrations of DMSO and acetonitrile were 0.01% (v/v) and 0.99% (v/v), respectively.
(§4) After incubation for an appropriate time (such as 5, 10, 20, 40, and 60 min), 600 µL of the termination solution containing the internal standard was added to each test compound sample and control compound well to terminate the reaction. The plates were sealed, shaken well, and then centrifuged at 4000 ×g and 4 °C for 15 min.
A short description of series [2]: In vitro liver microsome stability, human. The conditions noted are these: for CLint(liver): Human liver microsomes; for CLint scaled at 1 µM / half-life at 1 µM / microsomal CLint at 1 µM: human, liver microsomes, pH 7.4.
Protocol: as §1, §2, §3, §4
Series [3] in a line: In vitro liver microsome stability, SD rat. As to conditions: for CLint(liver): SD rat liver microsomes; for CLint scaled at 1 µM / half-life at 1 µM / microsomal CLint at 1 µM: SD, rat, liver microsomes, pH 7.4. On the technique in general: Liver microsomes are a subcellular fraction often used to study metabolism.
Protocol: as §1, §2, §3, §4

SMILES strings stand for the structures.

T1 sequence (P35462 whole entry, species assumed): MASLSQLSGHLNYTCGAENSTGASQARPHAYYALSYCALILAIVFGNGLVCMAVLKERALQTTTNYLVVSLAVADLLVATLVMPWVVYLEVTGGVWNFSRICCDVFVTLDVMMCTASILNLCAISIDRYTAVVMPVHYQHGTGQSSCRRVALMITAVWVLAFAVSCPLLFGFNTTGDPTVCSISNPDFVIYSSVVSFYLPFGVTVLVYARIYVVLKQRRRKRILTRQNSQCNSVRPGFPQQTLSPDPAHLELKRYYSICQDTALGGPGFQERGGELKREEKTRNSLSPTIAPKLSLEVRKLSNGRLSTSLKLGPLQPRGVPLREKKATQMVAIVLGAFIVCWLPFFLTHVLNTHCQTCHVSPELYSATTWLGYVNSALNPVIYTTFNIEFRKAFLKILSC

As usually defined, the EC50 is the concentration needed to bring the measured effect to its halfway point. A word on the Emax: it is the greatest response seen or fitted, relative to the assay's reference. On Dopamine D3 receptor, `CCCN(CC1CCN(c2cccc(Cl)c2Cl)CC1)[C@H]1CCc2nc(N)sc2C1` [Example 7, (S)-N^6-((1-(2,3-Dichlorophenyl)piperidin-4-yl)methyl)-N^6-propyl-4,5,6,7-tetrahydrobenzo[d]thiazole-2,6-diamine] returned an EC50 of 2.9 nM and a maximal response (Emax) of 122%.

At Dopamine D3 receptor, `CCCN(CC1CCN(c2cccc3sccc23)CC1)[C@@H]1CCc2nc(N)sc2C1` [Example 11, (R)-N^6-((1-(Benzo[b]thiophen-4-yl)piperidin-4-yl)methyl)-N^6-propyl-4,5,6,7-tetrahydrobenzo[d]thiazole-2,6-diamine] showed an EC50 of 3.3 nM and an Emax of 109%. On 5-HT1A, this compound registered an EC50 of 130 nM and an Emax of 92.6%.

In the case of `CCCN(CC1CCN(c2cccc3sccc23)CC1)C1CCc2nc(N)sc2C1` (centres unmarked) [Example 12, N^6-((1-(Benzo[b]thiophen-4-yl)piperidin-4-yl)methyl)-N^6-propyl-4,5,6,7-tetrahydrobenzo[d]thiazole-2,6-diamine], at 5-HT1A, the response was half-maximal at 31.4 nM (EC50) and the Emax stood at 115%.

As to `CCN(CC1CCN(c2cccc3sccc23)CC1)[C@H]1CCc2nc(N)sc2C1` [Example 13, (S)-N^6-((1-(Benzo[b]thiophen-4-yl)piperidin-4-yl)methyl)-N^6-ethyl-4,5,6,7-tetrahydrobenzo[d]thiazole-2,6-diamine], the EC50 turned out to be 3 nM on Dopamine D3 receptor and 35.9 nM at 5-HT1A. Besides, the Emax at Dopamine D3 receptor was found to be 133%; on 5-HT1A it was 118%.

For `CCCN(CC1CCN(C(=O)c2ccc(F)c(Cl)c2)CC1)[C@H]1CCc2nc(N)sc2C1` [Example 15, (S)-(4-(((2-Amino-4,5,6,7-tetrahydrobenzo[d]thiazol-6-yl)(propyl)amino)methyl)piperidin-1-yl)(3-chloro-4-fluorophenyl)methanone], at 5-HT1A, the EC50 was determined as 4.7 nM and the Emax stood at 85.1%.

On 5-HT1A, `CCCN(CCC1CCN(C(=O)c2ccc(F)c(Cl)c2)CC1)[C@H]1CCc2nc(N)sc2C1` [Example 16, (S)-(4-(2-((2-Amino-4,5,6,7-tetrahydrobenzo[d]thiazol-6-yl)(propyl)amino)ethyl)piperidin-1-yl)(3-chloro-4-fluorophenyl)methanone] came in with a concentration giving a half-maximal response (EC50) of 143 nM and an Emax of 93.7%.

`CCCN(CC1CCN(C(=O)c2ccc(F)c(Cl)n2)CC1)[C@H]1CCc2nc(N)sc2C1` [Example 18, (S)-(4-(((2-Amino-4,5,6,7-tetrahydrobenzo[d]thiazol-6-yl)(propyl)amino)methyl)piperidin-1-yl)(6-chloro-5-fluoropyridin-2-yl)methanone]: on 5-HT1A, the midpoint of the response, the EC50, lay at 48 nM and the Emax turned out to be 115%.

On to `CCCN(CC1CCN(C(=O)c2ccc(F)nc2)CC1)[C@H]1CCc2nc(N)sc2C1` [Example 19, (S)-(4-(((2-Amino-4,5,6,7-tetrahydrobenzo[d]thiazol-6-yl)(propyl)amino)methyl)piperidin-1-yl)(6-fluoropyridin-3-yl)methanone], for which, on 5-HT1A, a half-maximal response (EC50) required 184 nM and the maximum response (Emax) stood at 99.5%.

As for `CCCN(CC1CCN(C(=O)c2ccc(C#N)nc2)CC1)[C@H]1CCc2nc(N)sc2C1` [Example 20, (S)-5-(4-(((2-Amino-4,5,6,7-tetrahydrobenzo[d]thiazol-6-yl)(propyl)amino)methyl)piperidine-1-carbonyl)pyridinecarbonitrile], at 5-HT1A, the EC50 worked out at 131 nM and the Emax came to 115%.

At Dopamine D3 receptor, `CCCN(CC1CCN(C(=O)c2cc3ccccc3[nH]2)CC1)[C@H]1CCc2nc(N)sc2C1` [Example 21, (S)-(4-(((2-Amino-4,5,6,7-tetrahydrobenzo[d]thiazol-6-yl)(propyl)amino)methyl)piperidin-1-yl)(1H-indol-2-yl)methanone] registered an EC50 of 1.3 nM and an Emax of 105%.

For the compound `CCCN(CC1CCN(C(=O)c2cc3ccccc3s2)CC1)[C@H]1CCc2nc(N)sc2C1` [Example 22, (S)-(4-(((2-Amino-4,5,6,7-tetrahydrobenzo[d]thiazol-6-yl)(propyl)amino)methyl)piperidin-1-yl)(benzo[b]thiophen-2-yl)methanone], on 5-HT1A, the EC50 amounted to 99.3 nM and the Emax was 115%.

At 5-HT1A, `CCCN(CC1CCN(C(=O)c2ccc3ccccc3c2)CC1)[C@H]1CCc2nc(N)sc2C1` [Example 23, (S)-(4-(((2-Amino-4,5,6,7-tetrahydrobenzo[d]thiazol-6-yl)(propyl)amino)methyl)piperidin-1-yl)(naphthalen-2-yl)methanone] had an EC50 of 202 nM and an Emax of 101%.

The CLint scaled is the capacity of the preparation to metabolise the compound, expressed as a volume cleared per time. A higher CLint scaled goes with rapid turnover. One may read the half-life as the time in which the quantity being followed falls by half. Read a low half-life as fast loss. What is called microsomal CLint is the rate of metabolic loss divided by the concentration. The low end stands for slow turnover, the high end for rapid turnover. At 5-HT1A, `CCCN(CC1CCN(C(=O)c2cccs2)CC1)[C@H]1CCc2nc(N)sc2C1` [Example 24, (S)-(4-(((2-Amino-4,5,6,7-tetrahydrobenzo[d]thiazol-6-yl)(propyl)amino)methyl)piperidin-1-yl)(thiophen-2-yl)methanone] gave an EC50 of 75.7 nM and an Emax of 96.5%. In series [1], the CLint scaled at 1 µM is 38.6 to 210 mL/min/kg, the half-life at 1 µM was determined as 0.782 h, the microsomal CLint at 1 µM stood at 29.6 µL/min/mg and the “CLint(liver)” value was 117.1 mL/min/K g. In series [2], the “CLint(liver)” value stood at 34.3 mL/min/K g, the CLint scaled at 1 µM lay in the range of 8.9 to 48.3 mL/min/kg, the half-life at 1 µM was 0.607 h and the microsomal CLint at 1 µM is 38.1 µL/min/mg. In addition, in series [3], the “CLint(liver)” value was found to be 75.2 mL/min/K g, the intrinsic metabolic clearance (CLint scaled) at 1 µM lay in the range of 23.7 to 129 mL/min/kg, the half-life at 1 µM was found to be 0.553 h and the microsomal CLint at 1 µM was 41.8 µL/min/mg.

`CCCN(CC1CCN(C(=O)c2ccco2)CC1)[C@H]1CCc2nc(N)sc2C1` [Example 25, (S)-(4-(((2-Amino-4,5,6,7-tetrahydrobenzo[d]thiazol-6-yl)(propyl)amino)methyl)piperidin-1-yl)(furan-2-yl)methanone]: the EC50 on Dopamine D3 receptor was 1.3 nM; on 5-HT1A, 41.9 nM. The values for the Emax at Dopamine D3 receptor and on 5-HT1A were 106% and 112%, respectively.

In the case of `CCCN(CC1CCN(C(=O)c2cncs2)CC1)[C@H]1CCc2nc(N)sc2C1` [Example 27, (S)-(4-(((2-Amino-4,5,6,7-tetrahydrobenzo[d]thiazol-6-yl)(propyl)amino)methyl)piperidin-1-yl)(thiazol-5-yl)methanone], on 5-HT1A, the EC50 is 87.3 nM and the Emax is 99.9%. Besides, in series [1], the CLint scaled at 1 µM was in the range of 38.6 to 210 mL/min/kg, the half-life at 1 µM stood at 1.43 h, the microsomal CLint at 1 µM stood at 16.2 µL/min/mg and the “CLint(liver)” value stood at 64.0 mL/min/K g. In series [2], the “CLint(liver)” value amounted to 14.7 mL/min/K g, the CLint scaled at 1 µM is 8.9 to 48.3 mL/min/kg, the half-life at 1 µM was 1.42 h and the microsomal CLint at 1 µM stood at 16.3 µL/min/mg. In series [3], the “CLint(liver)” value came to 25.5 mL/min/K g, the CLint scaled at 1 µM is 23.7 to 129 mL/min/kg, the half-life at 1 µM was 1.63 h and the microsomal CLint at 1 µM was found to be 14.2 µL/min/mg.

At 5-HT1A, `CCCN(CC1CCN(S(=O)(=O)c2ccccc2)CC1)[C@H]1CCc2nc(N)sc2C1` [Example 30, (S)-N^6-((1-(Phenylsulfonyl)piperidin-4-yl)methyl)-N^6-propyl-4,5,6,7-tetrahydrobenzo[d]thiazole-2,6-diamine] came in with an EC50 of 39.9 nM and an Emax of 125%.

Source of the values: EP4570798A1, “AROMATIC HETEROCYCLIC CYCLOHEXYL AMINOALKYL PIPERIDINE DERIVATIVE, PREPARATION METHOD AND USE THEREOF” (Jiangsu NHWA Pharmaceutical Co., Ltd, priority 2022, dated 2024).
